Values of other authors as cited in patent US20230218596A1 (MEREO BIOPHARMA 4 LIMITED, priority 2020, published 2023).
Read-outs that look alike come from different tables or passages of the source.

Legend:
[1] = system: NE from other species, including mice; conditions: cited from earlier work
ARDS = conditions: experimental models of ARDS; cited from earlier work
NE [2] = target: T1, NE (Homo sapiens, UniProt P08246); conditions: cell-associated assay; cited from earlier work
cystic fibrosis = cystic fibrosis patients, 4-week duration; cited from earlier work
NE [3] = target: T1, NE; conditions: whole-blood assay; cited from earlier work
human NE = target: T2, human NE (Homo sapiens, UniProt P08246); conditions: cited from earlier work
T2 sequence (P08246 30-267): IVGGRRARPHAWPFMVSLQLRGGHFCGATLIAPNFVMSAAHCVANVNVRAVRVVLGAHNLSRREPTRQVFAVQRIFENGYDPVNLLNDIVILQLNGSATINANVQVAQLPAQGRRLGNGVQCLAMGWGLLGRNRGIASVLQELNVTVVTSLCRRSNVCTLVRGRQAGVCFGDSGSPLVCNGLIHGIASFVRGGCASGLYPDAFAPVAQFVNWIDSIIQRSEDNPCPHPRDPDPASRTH

bronchiectasis = bronchiectasis patients, 4-week duration; cited from earlier work

Structure (SMILES): Cc1c(-c2ccnn2C)cc(C(=O)NCc2ccc(S(C)(=O)=O)cn2)c(=O)n1-c1cccc(C(F)(F)F)c1 [Alvelestat, N-{[5-(methanesulfonyl)pyridin-2-yl]methyl}-6-methyl-5-(1-methyl-1H-pyrazol-5-yl)-2-oxo-1-[3-(trifluoromethyl)phenyl]-1,2-dihydropyridine-3-carboxamide]
- crossover potency for NE from other species [1]: good crossover potency
- lung inflammation and injury (ARDS): protected the lung from inflammation and injury
- IC50 (NE [2]): 48 nM
- biomarkers of elastase activity and inflammation (cystic fibrosis): significant decrease
- IC50 (NE [3]): 44 nM
- reversibility of inhibition (human NE): rapidly reversible
- lung function and inflammation (bronchiectasis): clinically significant improvement
